Here are results for 4 compounds from publication PMC13168289, “Potent acridone antimalarial against all three life stages of Plasmodium” (Nature Communications, 2026).

Data set [1] relates to P. cynomolgi hypnozoites and schizonts. Kind of data set: in vitro liver-stage P. cynomolgi assay in primary rhesus hepatocytes. The format is cell-based, Plasmodium cynomolgi. The conditions noted are these: Plasmodium cynomolgi, Hepatocyte, in Macaca mulatta, read-out: inhibition IC50. Here is the method:
(§1) The liver-stage P. cynomolgi assay was designed to identify anti-hypnozoite drugs utilizing a 384-well in vitro culture system[31],[37]. Briefly, cryopreserved primary simian hepatocytes (donor lots XGB, OQB, and QHO: BioIVT, Inc.) were seeded in collagen-coated 384-well plates and infected with P. cynomolgi bastianellii (B strain) sporozoites dissected from infected Anopheles dirus mosquitoes. Test compounds were solubilized in 100% DMSO and serially diluted 2-fold to generate up to a 12-point dose-response curve, maintaining a final DMSO concentration of 0.1% across all wells. Two distinct treatment modes were evaluated. For the prophylactic assay, to assess the prevention of infection, compound exposure began 1-hour post-infection with daily media changes on Days 1 and 2. For the radical cure assay, to assess activity against established liver forms, drugs were administered daily from Day 4 through Day 7 post-infection. […] For readout on Day 8, plates were fixed and stained via immunofluorescence to visualize parasite forms (hypnozoites and schizonts) and hepatocyte nuclei, and images were acquired using an Operetta CLS high-content imaging system (PerkinElmer). Host hepatocyte viability was measured in parallel to determine compound toxicity. Parasite forms were automatically quantified using Harmony 4.9 software, and percent inhibition and toxicity were calculated relative to in-plate DMSO vehicle controls. IC50 and CC50 (half-maximal cytotoxic concentrations) were determined by fitting dose-response data to a four-parameter logistic (variable slope) model using a custom Python script incorporating a grid search algorithm.

The nature of data set [2]: host hepatocyte viability in the P. cynomolgi assay. The format is cell-based, rhesus. To be noted: rhesus monkey; radical cure mode; read-out: cytotoxicity CC50. The protocol:
as §1

Data set [3] is described as follows: cytotoxicity against HepG2 cells. It counts as cell-based. To be noted: human, read-out: inhibition IC50 vs HepG2. The protocol: Cytotoxicity was evaluated in human HepG2 liver cells, using an MTT assay. Briefly, HepG2 cells were cultured in complete Dulbecco’s modified Eagle’s medium (DMEM; Gibco-Invitrogen, No. 11995-065) prepared by supplementing DMEM with 10% heat inactivated FBS (Gibco-Invitrogen, No. 16000-036), 100 units/mL penicillin, and 100 µg/mL streptomycin. Cell viability was assessed using trypan blue. Ninety-six-well plates were seeded with 2 × 10^4 cells per well and incubated at 37 °C overnight in a humidified 5% CO2 atmosphere. Test compound plates were prepared with an INTEGRA assist plus station and 96-well plates containing 11 duplicate 2-fold serial dilutions of test compound suspended in DMSO. The diluted test compound was then added to the corresponding well preseeded with HepG2 cells. […] After incubation, 20 µL of a 0.1 mg/mL solution of resazurin diluted in PBS was added to each well, and all plates were subsequently incubated for 3–4 h in an incubator. Absorbance was determined with the Molecular Devices SpectraMax plate reader. Three independent experiments, each in duplicate, were performed, and the IC50 values were determined using GraphPad Prism software (Version 10) using the non-linear regression equation (sigmoidal dose-response, variable slope).

Data set [4] relates to blood-stage P. yoelii. Kind of data set: 4-day suppression murine model, oral. The format is in vivo, P. yoelii in CF1 mice. The text has this:
(§2) Animals were housed at the VAPORHCS in Thoren Maxi-Miser microisolator cages (78 sq. in. floor space) with a maximum density of five females or four males per cage. Cages were maintained on a 12-h light/dark cycle and provided with autoclaved nesting materials (nestlets) for environmental enrichment. All mice had ad libitum access to food and water. Four- to five-week-old female and male outbred CF1 mice (Charles River Laboratories, Raleigh, NC, USA) were randomly assigned to treatment and control groups using a simple randomization procedure (e.g., computer-generated random numbers) to ensure balanced distribution of baseline body weights and starting parasitemia levels across all cohorts. Groups of four mice (n = 4, mean body weight of each group was ~30 g) were infected intravenously with 3.5 × 10^4 P. yoelii (Kenya strain, MRA-428) from a donor animal. Drug administration commenced the day after the animals were inoculated (Day 1). The test drug or the drug combination was dissolved in PEG-400 and administered by oral gavage once daily for 4 successive days in the 4-day suppression model, but only once on Day 1 in the single-dose cure model. Blood was collected via the tail vein with the aid of a syringe needle on Day 5 and then at weekly intervals through Day 28. Blood films were Giemsa-stained and examined microscopically to determine the level of parasitemia. All mice were observed daily to assess clinical signs. Animals with observable parasitemia following the experiments were euthanized; animals cleared of parasitemia from their bloodstream were observed daily with assessment of parasitemia performed weekly until Day 28, at which point, the animal(s) were scored as cured of the infection and then humanely euthanized. All treated mice with a negative smear on Day 28 were considered cured (100% protection). […]

In data set [5] the test system is blood-stage P. yoelii. The experiment in a line: single-dose cure murine model, oral. The format is in vivo, P. yoelii in CF1 mice.
From the text: as §2

The subject of data set [6] is luciferase-expressing P. berghei sporozoites. Kind of data set: liver-stage prophylaxis murine model with IVIS bioluminescence imaging. The format is in vivo, P. berghei in Albino C57BL/6 mice. The conditions noted are these: Days -1, 0, 1. The text has this:
Four- to six-week-old female inbred Albino C57BL/6 mice (18–22 g, Jackson Laboratories, Bar Harbor, ME, USA) were utilized. Animals were assigned unique study numbers via ear tags and cage cards and were randomly assigned to treatment or control groups (n = 5 per group) using a weigh-stratified randomization procedure. All animals were quarantined and acclimatized for 7 days prior to study initiation and were housed in a 12:12 light/dark cycle with food and water provided ad libitum. Mice were infected intravenously with 10^4 luciferase-expressing P. berghei sporozoites (ANKA strain) via tail vein injection on Day 0. Drugs were dissolved in PEG-400 and administered orally once per day on Day -1, Day 0, and Day 1. […] Infection reduction was assessed by comparing the bioluminescence signals emitted by treated groups with signals emitted by the vehicle control-treated group at that time point. Later blood-stage parasitemia was determined via flow cytometry. […] Long-term blood-stage efficacy was evaluated starting on Day 6 post-infection and continued for up to 31 days using flow cytometry.
In vivo antimalarial efficacy studies were performed as described above.

For data set [7] the following is noted: cited from earlier work.
On the set-up of data set [8]: method as in reviewer #3 remark. The conditions noted are these: in humans; ref reviewer #3 remark; cited from earlier work.
Data set [9] relates to P. falciparum mutant T111 lines. Kind of data set: drug susceptibility of T111-selected cyt b mutant lines. It counts as cell-based, Plasmodium falciparum. To be noted: Plasmodium falciparum, DD2, Supplementary Table 4. The protocol: DNA extractions were performed on clonal parasites using the QIAamp DNA extraction kit (QIAGEN Inc, Valencia, CA) or ZYMO Quick gDNA Miniprep kit (Zymo Research Corp, Irvine, CA). For sequencing of the open reading frame of pfcytb, PCR was performed with genomic DNA using forward and reverse flanking primers for cyt b primer 1: 5’-[…]-3’ and primer 2: 5’-[…]-3’. PCR products were subjected to enzymatic cleanup with ExoSAP-IT (Thermo Fisher Scientific) and sent for Sanger sequencing (Eurofins Genomics, Louisville, KY) with PCR primer 2 paired with an internal forward primer: 5’-[…]-3’ and an internal reverse primer: 5’-[…]-3’. Sequences were assembled using 4Peaks software (Nucleobytes, Amsterdam, Netherlands) and aligned with Clustal Omega (EMBL-EBI). For sequencing of the open reading frame of pfdhodh, PCR was performed with genomic DNA using forward primer: 5’-[…]-3’ and reverse primer: 5’-[…]-3’. PCR products were prepared for Sanger sequencing and analyzed as described above, except using two forward primers: 5’-[…]-3’ and 5’-[…]-3’ and with two reverse primers: 5’-[…]-3’ and 5’-[…]-3’.
(§3) Drug susceptibility assays against P. falciparum strains were performed using a SYBR Green based assay. D6 and Dd2 were obtained from MR4. Tm90-C2B was obtained from WRAIR. Dd2-D1^I22L and ELQ-300 were obtained from VAPORHCS. D10yDHODH was obtained as a courtesy from Dr. Akhil Vaidya at Drexel University. P. yoelii ATV^r and ELQ-300^r clones were obtained from VAPORHCS.

In data set [10] the test system is P. falciparum D6, Dd2, Tm90-C2B, Dd2-D1^I22L, D10yDHODH. The experiment in a line: microbe, parasite or virus in culture. To be noted: Plasmodium falciparum. It counts as cell-based, Plasmodium falciparum. Here is the method: as §3

Where “and” joins values, the source holds several entries; their conditions need not be identical. Equal values may be shown once. Read-outs that look alike come from different tables or passages of the source.

For `CO[C@@H]1[C@@H](OC)[C@H](C)[C@@](O)(CC(=O)O)O[C@H]1[C@H](C)[C@H]1O[C@@]2(CC[C@@](C)([C@H]3CC[C@@](C)([C@@H]4O[C@@H]([C@H]5O[C@](C)(O)[C@H](C)C[C@@H]5C)C[C@@H]4O[C@@H]4C[C@H](OC)[C@@H](OC)[C@H](C)O4)O3)O2)C[C@H](O)[C@H]1C` [MAD, maduramicin], the IC50 in [1] (prophylactic mode, hypnozoite) was under 0.98 nM; in data set [1] (prophylactic mode, schizont), under 0.98 nM; in data set [1] (radical cure mode, hypnozoite) it was 21 nM; in data set [1] (radical cure mode, schizont), 41 nM. In addition, in [2], the CC50 at 4 days worked out at 360 nM.

For `OC(c1cc(C(F)(F)F)nc2c(C(F)(F)F)cccc12)C1CCCCN1` (centres unmarked) [mefloquine], the IC50 at 24 h in [3] (HepG2 cells) was determined as 4.94 µM.

`COc1cc(C)c2c(Oc3cccc(C(F)(F)F)c3)c(OC)cc(NC(C)CCCN)c2n1` (centres unmarked) [TQ, tafenoquine]: the “ED50 of TQ” value was found to be 0.59 mg/kg/day in [4] (TQ + 0.03 mg/kg/d T111); 0.12 mg/kg/day in data set [4] (TQ + 0.06 mg/kg/d T111); 0.05 mg/kg/day in data set [4] (TQ + 0.12 mg/kg/d T111); 1.70 mg/kg/day in data set [4] (TQ alone, female CF1 mice). In addition, the “% survival through Day 28” value was 0% in data set [5] (TQ 15 + T111 0 mg/kg), 25% in [5] (TQ 20 + T111 0 mg/kg), 75% in [5] (TQ 30 + T111 0 mg/kg) and 100% in [5] (TQ 40 + T111 0 mg/kg). Moreover, the “number of mice cured on Day 28” value in data set [5] (TQ 15 + T111 0 mg/kg) is 0/4; in [5] (TQ 20 + T111 0 mg/kg), 1/4; in data set [5] (TQ 30 + T111 0 mg/kg), 3/4; in data set [5] (TQ 40 + T111 0 mg/kg), “single-dose cure in all treated mice and 4/4”. Besides, the “parasitemia burden on Day 5” value in data set [5] (TQ 15 + T111 0 mg/kg), in data set [5] (TQ 20 + T111 0 mg/kg), in data set [5] (TQ 30 + T111 0 mg/kg) and in data set [5] (TQ 40 + T111 0 mg/kg) was 0 each time. For the same compound, the IC50 in [1] (prophylactic mode, hypnozoite) worked out at 180 nM; in data set [1] (prophylactic mode, schizont), 170 nM; in data set [1] (radical cure mode, hypnozoite) it was 8100 nM; in data set [1] (radical cure mode, schizont) it was 9800 nM. For the same compound, in [2], the CC50 at 4 days is over 20000 nM. For the same compound, the “protection from liver-stage infection” value is recorded as “did not clear liver-stage infection” in data set [6] (1 mg/kg/day oral) and “full protection” in [6] (10 mg/kg/day oral). Besides, the T1/2 in [7] (mouse liver, ref internal data from WRAIR) was 75 h; in data set [7] (mouse plasma, ref internal data from WRAIR), 50 h; in data set [8] it was 14 days.

With `CCN(CC)CCCC(C)Nc1ccnc2cc(Cl)ccc12` (centres unmarked) [CQ, chloroquine], the IC50 at 24 h in [3] (HepG2) was determined as 68.6 µM. Also, the IC50 in data set [9] (Dd2) was 181 ± 15 nM; in [9] (Dd2-A131S-140I-259L-264L), 205 ± 21 nM; in [9] (Dd2-B131S-140I-259L-264L) it was 168 ± 31 nM; in data set [9] (Dd2-D0119L-131S-259L (pfdhodh mutation)) it was 210 ± 34 nM; in [9] (Dd2-D1131S-140I-259L (pfdhodh mutation)) it was 162 ± 18 nM; in data set [10] (read-out: in vitro IC50 vs P. falciparum, D6), 14 ± 0.7 nM. The IC50 amounted to 79 ± 16 nM in [10] (read-out: in vitro IC50 vs P. falciparum, D10yDHODH); 209 ± 26 nM in data set [10] (read-out: in vitro IC50 vs P. falciparum, Dd2-D1^I22L (ELQ-300-resistant)); 211 ± 7.6 nM in data set [10] (read-out: in vitro IC50 vs P. falciparum, Tm90-C2B (cyt b Y268S, ATV-resistant)). Also, the T1/2 entry in data set [7] (healthy mice, ref PMID: 21646487) was “about 46 h”; in data set [8], 20 to 40 days.

By IC50 is commonly meant the concentration at which inhibition is half-maximal. As a reminder, the CC50 is the concentration giving 50% cytotoxicity.
